The values below are quoted from earlier work in patent US20250241957A1, “INTRA-ERYTHROCYTE DEXAMETHASONE FOR TREATMENT OF ATAXIA-[…]” (priority 2024, published 2025).

SMILES strings stand for the structures.

In the series the test system is participants with A-T. Particulars: betamethasone used for two years.

For the compound `C[C@H]1C[C@H]2[C@@H]3CCC4=CC(=O)C=C[C@]4(C)[C@@]3(F)[C@@H](O)C[C@]2(C)[C@@]1(O)C(=O)CO` [betamethasone], the Adrenal suppression result was “documented in all participants”.
